One assay has as its system Candida auris biofilm. As to the kind of experiment: Biofilm CFU killing assay (96-well microtiter plate, 24 and 48 h). The class given is cell-based. As to conditions: clade 3 (strain CA9), compared to clade 1 and clade 2; AgNO3 0.0250 to 0.0025 mg/mL. The method, then:
C. auris strains, the clinical isolates, were used to study the effects of the nanomaterial on biofilm formation for 24 and 48 h. All analyses were performed with replicates, and mean values were considered. Initially, culture cells from preserved stock at -80° C. were revived by streaking onto Sabauraud dextrose agar (SDA) plates and incubating overnight at 37° C. From the revived plates, a loopful of the strains was inoculated into SDB and further incubated using an orbital shaker at 130 rpm and 37° C. for 24 and 48 h. The biofilm assay was carried out using the 96-well microtiter plate. The cells harvested from overnight SDB cultures were adjusted to a cell density of 10^7 CFU/mL and diluted. […] Post incubation, plates were manually counted and recorded for the number of cells. Later, the quantity of biofilm formation was determined using a colony-forming unit technique (CFU) and determined as per the following formula: A/B×100 (A is the total number of colonies after treatment and B is the number of cells in control). […] Later, the quantity of biofilm formation was determined using the CFU technique. […] Post incubation, plates were manually counted and recorded for the number of cells. Then, the quantity of biofilm formation was determined using the CFU technique and determined as per the following formula: CFU/mL=(Number of colonies×dilution factor)/volume of plated culture. […]

Another assay deals with planktonic C. auris. As to the kind of experiment: Effect on planktonic C. auris by light microscopy. The assay is classed as cell-based, Candida auris. The settings on record: clade 3 (strain CA9), compared to clade 1 and clade 2; AgNO3 0.0250 to 0.0025 mg/mL. The protocol:
The antifungal activity of the nanomaterial on planktonic C. auris strains was determined by using light microscopy examination. Briefly, the inoculum was adjusted to a final concentration of 10^6 cells mL^−1. […] Plates were incubated at 37° C. for 48 h. […] The mean value of the duplicates was recorded, and micrographs were taken. One-way ANOVA analysis was carried out to identify the significance.

Consider `O=[N+]([O-])[O-].[Ag+]` [AgNO3, silver nitrate], for which, in the assay on Candida auris biofilm, the “inhibitory effect on the biofilm” value is reported as “complete inhibitory effect”. Also, the “inhibitory effect on the planktonic cells” value in the assay on planktonic C. auris is listed as “complete inhibitory effect”.

For the origin of these results see US12677834B2, “Silver silicalite zeolite nanomaterials for reducing Candida auris biofilms” (Imam Abdulrahman Bin Faisal University, priority 2023, dated 2026).
